Several values for one entry are separate records, joined by “and”; a condition that tells them apart may be missing. Equal values may be shown once. Read-outs that look alike come from different tables or passages of the source.
Biological target: T1, TGR (Schistosoma mansoni, UniProt Q962Y6)
T1 construct: made in house
T1 sequence (Q962Y6 1-598): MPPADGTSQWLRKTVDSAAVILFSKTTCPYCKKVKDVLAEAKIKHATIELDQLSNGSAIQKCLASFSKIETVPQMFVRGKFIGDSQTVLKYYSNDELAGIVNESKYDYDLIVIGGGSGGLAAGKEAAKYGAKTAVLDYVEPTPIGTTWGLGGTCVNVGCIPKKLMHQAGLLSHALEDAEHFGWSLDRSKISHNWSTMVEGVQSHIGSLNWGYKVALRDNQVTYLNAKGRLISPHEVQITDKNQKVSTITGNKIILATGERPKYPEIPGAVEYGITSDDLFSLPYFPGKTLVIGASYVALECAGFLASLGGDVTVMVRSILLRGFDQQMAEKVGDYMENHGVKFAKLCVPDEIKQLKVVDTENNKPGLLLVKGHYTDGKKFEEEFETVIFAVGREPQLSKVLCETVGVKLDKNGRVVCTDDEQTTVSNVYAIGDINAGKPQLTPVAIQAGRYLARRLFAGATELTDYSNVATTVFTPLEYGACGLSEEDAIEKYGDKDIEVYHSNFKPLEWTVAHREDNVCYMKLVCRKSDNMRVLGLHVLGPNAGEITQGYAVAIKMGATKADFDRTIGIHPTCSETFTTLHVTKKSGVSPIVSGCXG
Format: biochemical, S. mansoni
Conditions: for mode of inhibition (NADPH varied): steady state
Protocol: Master mixes with varying concentrations of NADPH were made, each with 2 nM TGR in reaction buffer. Inhibitor (2 µl) was added to a 96 well microplate in triplicate for each NADPH and inhibitor concentration, and 192 µl of the master buffer was added to each well. The reaction incubated for 15 min and 6 µl of 50 mM DTNB was added to each well. The kinetic rate was measured at A412 for 5 min.

[1] = inhibitor 1 µM, NADPH 5 (unit not given)
[2] = inhibitor 1 µM, NADPH 10 (unit not given)
[3] = inhibitor 1 µM, NADPH 30 (unit not given)
[4] = inhibitor 1 µM, NADPH 100 (unit not given)
[5] = inhibitor 3 µM, NADPH 5 (unit not given)
[6] = inhibitor 3 µM, NADPH 10 (unit not given)
[7] = inhibitor 3 µM, NADPH 30 (unit not given)
[8] = inhibitor 3 µM, NADPH 100 (unit not given)

In the case of `Cc1oc(-c2ccccc2)nc1CN[C@@H]1C[C@@H]2C[C@H]([C@H]1C)C2(C)C` [Compound 3], the Vmax (70 µM inhibitor, 6 hr preincubation) is reported as 0.0086 ± 0.0003 ΔA412/min, the avg rate (NADPH 3 µM, 35 µM compound) is reported as 0.003992 and the avg rate (NADPH 3 µM, 50 µM compound) is reported as 0.003778. It also gave an avg rate (NADPH 3 µM, 70 µM compound) of 0.003468, an avg rate (NADPH 10 µM, 35 µM compound) of 0.007014 and an avg rate (NADPH 10 µM, 50 µM compound) of 0.006219. It also gave an avg rate (NADPH 10 µM, 70 µM compound) of 0.005582, an avg rate (NADPH 30 µM, 35 µM compound) of 0.009551 and an avg rate (NADPH 30 µM, 50 µM compound) of 0.008305. The avg rate (NADPH 30 µM, 70 µM compound) was 0.007122, the avg rate (NADPH 100 µM, 35 µM compound) was 0.01022 and the avg rate (NADPH 100 µM, 50 µM compound) was 0.009229. For the same compound, the avg rate (NADPH 100 µM, 70 µM compound) was 0.00846, the “mode of inhibition (NADPH varied)” value was “uncompetitive inhibition” and the “mode of inhibition (NADPH varied)” value (listed as 3 (8VP83)) was “uncompetitive behavior”.

With `CC1C(NCc2cn(C3OCC(O)C(O)C3O)c3ccccc23)CC2CC1C2(C)C` (stereo not drawn) [Compound 9] the Vmax (10 µM fast inhibitor) was 0.012 ± 0.00012 ΔA412/min, the Vmax (30 µM fast inhibitor) was 0.0056 ± 0.00043 ΔA412/min and the Vmax (60 µM fast inhibitor) was 0.0033 ± 0.00024 ΔA412/min. The “Rate, single replicate” value [1] was 0.004595 and 0.004128 and 0.004463, the avg rate [1] was 0.004395 and the “Rate, single replicate” value [2] was 0.005356 and 0.005454 and 0.005186. The avg rate [2] was 0.005332, the “Rate, single replicate” value [3] was 0.00852 and 0.006935 and the avg rate [3] was 0.007727. The “Rate, single replicate” value [4] was 0.008379 and 0.007686 and 0.007654, the avg rate [4] was 0.007906 and the “Rate, single replicate” value [5] was 0.002898 and 0.002979 and 0.003645. For the same compound, the avg rate [5] was 0.003174, the “Rate, single replicate” value [6] was 0.003704 and 0.003359 and 0.003645 and the avg rate [6] was 0.003569. For the same compound, the “Rate, single replicate” value [7] was 0.005584, the avg rate [7] was 0.02094 and the “Rate, single replicate” value [8] was 0.004192 and 0.005 and 0.004489. The avg rate [8] was 0.00456, the “Rate, single replicate” value (inhibitor 10 µM, NADPH 5 (unit not given)) was 0.00023 and 0.001097 and 0.0005855 and the “Rate, single replicate” value (inhibitor 10 µM, NADPH 10 (unit not given)) was 0.001061 and 0.0007127 and 0.0008019. For the same compound, the “Rate, single replicate” value (inhibitor 10 µM, NADPH 30 (unit not given)) was 0.0004565 and 0.000593, the “Rate, single replicate” value (inhibitor 10 µM, NADPH 100 (unit not given)) was 0.0001918 and 0.000912 and 1.594e-5 and the “mode of inhibition (NADPH varied)” value was “noncompetitive inhibition”.

Reference: publication PMC10287695, “Non-covalent inhibitors of thioredoxin glutathione reductase with schistosomicidal activity in vivo” (Nature Communications, 2023)
